# Test results: PMC3199867, “Targeting surface nucleolin with multivalent HB-19 and related Nucant pseudopeptides results in distinct inhibitory mechanisms depending on the malignant tumor cell type” (BMC Cancer, 2011)
# Columns and labels:
# [1] = test system: nucleophosmin; test: mRNA expression by RT-PCR in SW620 cells; assay type: cell-based, human; conditions: SW620, 10 μM, 24, 48 and 72 hours
# Protocol: (§1) SW620 cells were cultured in the absence or presence of N7 before extraction for total RNA using RNeasy Mini Kit (Qiagen) according to the manufacturer's instructions. RT was carried out with oligo(dT) and 2-4 μg of total RNA using Superscript II Reverse Transcriptase (Invitrogen). PCR was performed in a RoboCycler 96 (Stratagene, La Jolla, CA, USA) with specific primers for human nucleolin (referred to as NCL) 5'-[…]-3' and 5'-[…]-3' (835 bp); glyceraldehyde-3-phosphate dehydrogenase (GAPDH) 5'-TGAAGG-[…]-3' and 5'-[…]-CCAC-3' (983 bp); nucleophosmin (NPM or B23) 5'-[…]-3' and 5'-[…]-3' (320 bp); matrix metalloproteinase-2 (MMP-2) 5'-[…]-3' and 5'-[…]-3' (580 bp); matrix metalloproteinase-9 (MMP-9) 5'-[…] TCAGAGC-3' and 5'-[…]-3' (243 bp); tissue inhibitor of metalloproteinase 1 (TIMP-1) 5'-[…]-3' and 5'-[…]-3' (667 bp); tissue inhibitor of metalloproteinase 2 (TIMP-2) 5'-[…]-3' and 5'-[…]-3' (405 bp). PCR amplification conditions were: 95°C for 5 min, 30 cycles at 95°C for 30 sec, 60°C for 30 sec and 72°C for 45 sec, and 72°C for 5 min (for NCL and GAPDH), 95°C for 5 min, 30 cycles at 95°C for 30 sec, 53°C for 30 sec and 72°C for 30 sec, and 72°C for 5 min (for NPM); 95°C for 5 min, 35 cycles at 95°C for 45 sec, 56°C for 45 sec and 72°C for 45 sec, and 72°C for 5 min (for MMP2 and MMP9); 95°C for 5 min, 30 cycles at 95°C for 45 sec, 59°C for 1 min and 72°C for 1 min 30 sec, and 72°C for 5 min (for TIMP1 and TIMP2).
# (§2) Figure 6 Selective down regulation of MMP-9 and nucleolin transcripts in Nucant treated SW620 cells. A. SW620 cells in the absence (lanes -) and presence (lanes +) of 10 μM of N7 were cultured for 24, 48, and 72 hours. B. Dose dependent reduction of MMP-9 and nucleolin transcripts in response to Nucant treatment. Newly seeded SW620 cells were cultured in the absence (lanes 1) and presence of 2.5 (lanes 2), 5 (lanes 3) and 10 (lanes 4) […] of N6 for 20 hours. Total RNA extracts were prepared at different time points and the expression of various transcripts was analyzed by RT-PCR using specific primers (Methods). […]
# [2] = test system: nucleolin; test: mRNA expression by RT-PCR in SW620 cells; assay type: cell-based, human; conditions: SW620, 10 μM, 24, 48 and 72 hours
# Protocol: as §1, §2
# [3] = test system: MMP-9; test: mRNA expression by RT-PCR in SW620 cells; assay type: cell-based, human; conditions: SW620, 10 μM, 24 hours post-seeding
# Protocol: as §1, §2
# [4] = test system: T29 cells; test: Internucleosomal DNA fragmentation (low molecular weight DNA of nucleoplasm, agarose gel); assay type: cell-based, murine; conditions: T29 cells, 2.5, 5, 10, and 20 μM, 24 hours
# Description: Extraction of nuclei in buffer I (prepared as above) from viable cells results in the recovery of chromatin-free nucleoplasm. However, during cell death when DNA fragmentation occurs, the low molecular weight DNA fragments are recovered in the nucleoplasm. Consequently, supernatant of nuclear extracts from cells undergoing programmed cell death contain low molecular weight DNA fragments, whereas the pellet of the nuclear extracts contain the high molecular weight chromatin. By this experimental approach, DNA fragmentation could be analyzed without interference of the bulky DNA [51]. […] The DNA pellet was resuspended in electrophoresis buffer (10 mM Tris-HCI, pH 8.0, 1 mM EDTA) and analyzed by electrophoresis on 1.5% agarose gels containing […] ethydium bromide.
# Figure 7 HB-19 and related multivalent Nucant pseudopeptides induce cell death associated with internucleosomal DNA fragmentation. […] Cell cultures (in triplicate) were monitored for viable cell number daily for 3 days. […] T29 cells seeded at 100,000/ml in 2 ml in the absence (0 μM) or presence of N7 at various concentrations 2.5, 5, 10 and 20 μM were cultured for 3 days and the number of viable cells was determined at day 1, 2, and 3 post-seeding. […] The nuclear extracts were analyzed by immunoblotting using anti-Nt Ab (Methods). […]
# [5] = test system: melanoma TIII cell; test: Cell adhesion; assay type: cell-based, murine; conditions: after 5 hours of cell seeding, vs untreated control, mean of at least 2 independent experiments
Substance,expression of transcripts coding nucleophosmin [1],transcripts coding nucleolin [2],expression of MMP-9 transcripts [3],DNA fragmentation [4],% Inhibition of cell Adhesion ([5]; 2.5 μM) [%],% Inhibition of cell Adhesion ([5]; 5 μM) [%],% Inhibition of cell Adhesion ([5]; 10 μM) [%],% Inhibition of cell Adhesion ([5]; 20 μM) [%]
"Ac-KAKPGKAKPGKAKPG-NH2 [Nucant N7, Presents hexavalently the pseudo-tripeptide Lysψ(CH2N)-Pro-Arg coupled to a similar template as in HB-19]",not affected,marked down regulation,completely abolished,,,,,
"Ac-Lys-Aib-Gly-Lys-Aib-Gly-Lys-Aib-Gly-Lys-Aib-Gly-Lys-Aib-Gly-Lys-Aib-Gly-CONH2 [Nucant N6, Presents hexavalently the pseudo-tripeptide Lysψ(CH2N)-Pro-Arg coupled to the polypeptide template containing Aib]",,,,Internucleosomal DNA cleavage,15,26,38,55
